Source: patent US7192906B2, “Substituted pyrazole derivatives, production process thereof, and herbicide compositions containing the derivatives” (SDS Biotech K.K., priority 2001, dated 2007)

Key:
Type in all cases: in vivo
Scirpus juncoides = test: Test Example 3 paddy field treatment; conditions: active ingredient 1 kg per hectare, index 0-5
Protocol: (§1) A plastic pot of 130 cm^2 was filled with paddy soil, and soil puddling was carried out to adjust the submerged depth to 4 cm. Subsequently, seeds of Echinochloa crusgalli, Monochoria vaginalis, Ammannia multiflora and Scirpus juncoides were sowed, and rice (Oryza sative, variety: Koshihikari) of two-leaf period was transplanted by 2 rice plants of 1 stub per pot at a depth of 3 cm. On the 10th day after the transplantation, the wettable powder prepared in Formulation Example 1 was diluted with water such that the amount of the active ingredient became 1 kg per hectare, and then dropped to diffuse on the water surface. On the 21st day after the dropping, observation and evaluation were carried out according to the aforesaid criteria.
(§2) Herbicidal activity was evaluated based on the following criteria.
(§3) • 5: herbicidal effect of not less than 90%, or phytotoxicity of 90% or more • 4: herbicidal effect of not less than 70% and less than 90%, or phytotoxicity of 70% or more and less than 90% • 3: herbicidal effect of not less than 50% and less than 70%, or phytotoxicity of 50% or more and less than 70% • 2: herbicidal effect of not less than 30% and less than 50%, or phytotoxicity of 30% or more and less than 50% • 1: herbicidal effect of not less than 10% and less than 30%, or phytotoxicity of 10% or more and less than 30% • 0: herbicidal effect of not less than 0% and less than 10%, or phytotoxicity of 0% or more and less than 10%

Echinochloa crusgalli = test: Test Example 3 paddy field treatment; conditions: active ingredient 1 kg per hectare, index 0-5
Protocol: as §1, §2, §3

Monochoria vaginalis = test: Test Example 3 paddy field treatment; conditions: active ingredient 1 kg per hectare, index 0-5
Protocol: as §1, §2, §3

Ammannia multiflora = test: Test Example 3 paddy field treatment; conditions: active ingredient 1 kg per hectare, index 0-5
Protocol: as §1, §2, §3

Rice (Oryza sativa) = test: Test Example 3 paddy field treatment, crop phytotoxicity; conditions: active ingredient 1 kg per hectare, index 0-5; for Herbicidal activity OS (phytotoxicity to rice): paddy field treatment, transplanted rice Koshihikari, wettable powder, 21st day after the dropping; for Herbicidal activity (phytotoxicity) OS: Table 6, paddy field treatment, transplanted rice, 21st day after dropping
Protocol: as §1, §2, §3

soybean (Glycine max) [1] = test: Test Example 1 upland field foliage treatment, crop phytotoxicity; conditions: Table 4, upland field foliage treatment, index 0-5
Protocol: (§4) A plastic pot of 130 cm^2 was filled with upland soil. Subsequently, weed seeds of Setaria viridis, Digitaria adscendens, Chenopodium album and Stellaria media, and crop seeds of soybean (Glycine max) and wheat (Triticum aestivum), were sowed and covered with soil of about 1 cm thickness. On the 14th day after the sowing, the wettable powder prepared in Formulation Example 1 was diluted with water such that the amount of the active ingredient became 1 kg per hectare, and then uniformly applied to the plant leaf surfaces. On the 21st day after the application, observation and evaluation were carried out according to the criteria described below.
as §2, §3

[2] = tested on: wheat (Triticum aestivum); test: as above; conditions: Table 4, upland field foliage treatment, index 0-5
Protocol: as §4, §2, §3

Chenopodium album [3] = test: Test Example 1 upland field foliage treatment; conditions: Table 4, upland field foliage treatment, index 0-5
Protocol: as §4, §2, §3

Stellaria media [4] = test: Test Example 1 upland field foliage treatment; conditions: Table 4, upland field foliage treatment, index 0-5
Protocol: as §4, §2, §3

Digitaria adscendens [5] = test: Test Example 1 upland field foliage treatment; conditions: Table 4, upland field foliage treatment, index 0-5
Protocol: as §4, §2, §3

Setaria viridis [6] = test: Test Example 1 upland field foliage treatment; conditions: Table 4, upland field foliage treatment, index 0-5
Protocol: as §4, §2, §3

soybean (Glycine max) [7] = test: Test Example 2 upland soil treatment, crop phytotoxicity; conditions: Table 5, upland soil treatment, index 0-5
Protocol: as §4, with “next” for “14th”, “soil surface.” for “plant leaf surfaces.”, “aforesaid criteria.” for “criteria described below.”
as §2, §3

[8] = tested on: wheat (Triticum aestivum); test: as above; conditions: Table 5, upland soil treatment, index 0-5
Protocol: as §4, with “next” for “14th”, “soil surface.” for “plant leaf surfaces.”, “aforesaid criteria.” for “criteria described below.”
as §2, §3

Chenopodium album [9] = test: Test Example 2 upland soil treatment; conditions: Table 5, upland soil treatment, index 0-5
Protocol: as §4, with “next” for “14th”, “soil surface.” for “plant leaf surfaces.”, “aforesaid criteria.” for “criteria described below.”
as §2, §3

Stellaria media [10] = test: Test Example 2 upland soil treatment; conditions: Table 5, upland soil treatment, index 0-5
Protocol: as §4, with “next” for “14th”, “soil surface.” for “plant leaf surfaces.”, “aforesaid criteria.” for “criteria described below.”
as §2, §3

Digitaria adscendens [11] = test: Test Example 2 upland soil treatment; conditions: Table 5, upland soil treatment, index 0-5
Protocol: as §4, with “next” for “14th”, “soil surface.” for “plant leaf surfaces.”, “aforesaid criteria.” for “criteria described below.”
as §2, §3

Setaria viridis [12] = test: Test Example 2 upland soil treatment; conditions: Table 5, upland soil treatment, index 0-5
Protocol: as §4, with “next” for “14th”, “soil surface.” for “plant leaf surfaces.”, “aforesaid criteria.” for “criteria described below.”
as §2, §3

[13] = paddy field treatment, wettable powder, 21st day after the dropping
[14] = Table 6, paddy field treatment, 21st day after dropping

SMILES: CNC(=O)C(Cn1cc(C)c(C2CCCCC2)n1)=NOC [Compound 11]
- Herbicidal activity SJ (Scirpus juncoides; [13]): 5 (herbicidal effect of not less than 90%, or phytotoxicity of 90% or more)
- Herbicidal activity EC (Echinochloa crusgalli; [13]): 5 (herbicidal effect of not less than 90%, or phytotoxicity of 90% or more)
- Herbicidal activity MV (Monochoria vaginalis; [13]): 5 (herbicidal effect of not less than 90%, or phytotoxicity of 90% or more)
- Herbicidal activity AM (Ammannia multiflora; [13]): 5 (herbicidal effect of not less than 90%, or phytotoxicity of 90% or more)
- Herbicidal activity OS (phytotoxicity to rice) (Rice (Oryza sativa)): 1 (herbicidal effect of not less than 10% and less than 30%, or phytotoxicity of 10% or more and less than 30%)
- Herbicidal activity (phytotoxicity) GM: Soybean (Glycine max) (soybean (Glycine max) [1]): 0 (herbicidal effect of not less than 0% and less than 10%, or phytotoxicity of 0% or more and less than 10%)
- Herbicidal activity (phytotoxicity) TA: Wheat (Triticum aestivum) [2]: 0 (herbicidal effect of not less than 0% and less than 10%, or phytotoxicity of 0% or more and less than 10%)
- Herbicidal activity CA: Chenopodium album (Chenopodium album [3]): 5 (herbicidal effect of not less than 90%, or phytotoxicity of 90% or more)
- Herbicidal activity SM: Stellaria media (Stellaria media [4]): 3 (herbicidal effect of not less than 50% and less than 70%, or phytotoxicity of 50% or more and less than 70%)
- Herbicidal activity DA: Digitaria adscendens (Digitaria adscendens [5]): 5 (herbicidal effect of not less than 90%, or phytotoxicity of 90% or more)
- Herbicidal activity SV: Setaria viridis (Setaria viridis [6]): 3 (herbicidal effect of not less than 50% and less than 70%, or phytotoxicity of 50% or more and less than 70%)

SMILES: CNC(=O)C(Cn1cc(C)c(-c2ccccc2F)n1)=NOC [Compound 42]
- Herbicidal activity SJ (Scirpus juncoides; [13]): 5 (herbicidal effect of not less than 90%, or phytotoxicity of 90% or more)
- Herbicidal activity EC (Echinochloa crusgalli; [13]): 5 (herbicidal effect of not less than 90%, or phytotoxicity of 90% or more)
- Herbicidal activity MV (Monochoria vaginalis; [13]): 5 (herbicidal effect of not less than 90%, or phytotoxicity of 90% or more)
- Herbicidal activity AM (Ammannia multiflora; [13]): 5 (herbicidal effect of not less than 90%, or phytotoxicity of 90% or more)
- Herbicidal activity OS (phytotoxicity to rice) (Rice (Oryza sativa)): 0 (herbicidal effect of not less than 0% and less than 10%, or phytotoxicity of 0% or more and less than 10%)
- Herbicidal activity (phytotoxicity) GM: Soybean (Glycine max) (soybean (Glycine max) [1]): 0 (herbicidal effect of not less than 0% and less than 10%, or phytotoxicity of 0% or more and less than 10%)
- Herbicidal activity (phytotoxicity) TA: Wheat (Triticum aestivum) [2]: 0 (herbicidal effect of not less than 0% and less than 10%, or phytotoxicity of 0% or more and less than 10%)
- Herbicidal activity CA: Chenopodium album (Chenopodium album [3]): 5 (herbicidal effect of not less than 90%, or phytotoxicity of 90% or more)
- Herbicidal activity SM: Stellaria media (Stellaria media [4]): 5 (herbicidal effect of not less than 90%, or phytotoxicity of 90% or more)
- Herbicidal activity DA: Digitaria adscendens (Digitaria adscendens [5]): 5 (herbicidal effect of not less than 90%, or phytotoxicity of 90% or more)
- Herbicidal activity SV: Setaria viridis (Setaria viridis [6]): 5 (herbicidal effect of not less than 90%, or phytotoxicity of 90% or more)

SMILES: CNC(=O)C(Cn1cc(C)c(-c2ccc(C#N)cc2)n1)=NOC [Compound 51]
- Herbicidal activity (phytotoxicity) GM: Soybean (Glycine max) (soybean (Glycine max) [7]): 0 (herbicidal effect of not less than 0% and less than 10%, or phytotoxicity of 0% or more and less than 10%)
- Herbicidal activity (phytotoxicity) TA: Wheat (Triticum aestivum) [8]: 0 (herbicidal effect of not less than 0% and less than 10%, or phytotoxicity of 0% or more and less than 10%)
- Herbicidal activity CA: Chenopodium album (Chenopodium album [9]): 4 (herbicidal effect of not less than 70% and less than 90%, or phytotoxicity of 70% or more and less than 90%)
- Herbicidal activity SM: Stellaria media (Stellaria media [10]): 4 (herbicidal effect of not less than 70% and less than 90%, or phytotoxicity of 70% or more and less than 90%)
- Herbicidal activity DA: Digitaria adscendens (Digitaria adscendens [11]): 4 (herbicidal effect of not less than 70% and less than 90%, or phytotoxicity of 70% or more and less than 90%)
- Herbicidal activity SV: Setaria viridis (Setaria viridis [12]): 4 (herbicidal effect of not less than 70% and less than 90%, or phytotoxicity of 70% or more and less than 90%)

SMILES: CNC(=O)C(Cn1cc(C)c(-c2ccc(F)c(C(F)(F)F)c2)n1)=NOC [Compound 90]
- Herbicidal activity SJ (Scirpus juncoides; [14]): 4 (herbicidal effect of not less than 70% and less than 90%, or phytotoxicity of 70% or more and less than 90%)
- Herbicidal activity EC (Echinochloa crusgalli; [14]): 5 (herbicidal effect of not less than 90%, or phytotoxicity of 90% or more)
- Herbicidal activity MV (Monochoria vaginalis; [14]): 5 (herbicidal effect of not less than 90%, or phytotoxicity of 90% or more)
- Herbicidal activity AM (Ammannia multiflora; [14]): 5 (herbicidal effect of not less than 90%, or phytotoxicity of 90% or more)
- Herbicidal activity (phytotoxicity) OS (Rice (Oryza sativa)): 0 (herbicidal effect of not less than 0% and less than 10%, or phytotoxicity of 0% or more and less than 10%)

SMILES: CNC(=O)C(Cn1cc(C)c(-c2ccc(OC)cc2OC(F)F)n1)=NOC [Compound 91]
- Herbicidal activity SJ (Scirpus juncoides; [14]): 4 (herbicidal effect of not less than 70% and less than 90%, or phytotoxicity of 70% or more and less than 90%)
- Herbicidal activity EC (Echinochloa crusgalli; [14]): 5 (herbicidal effect of not less than 90%, or phytotoxicity of 90% or more)
- Herbicidal activity MV (Monochoria vaginalis; [14]): 5 (herbicidal effect of not less than 90%, or phytotoxicity of 90% or more)
- Herbicidal activity AM (Ammannia multiflora; [14]): 5 (herbicidal effect of not less than 90%, or phytotoxicity of 90% or more)
- Herbicidal activity (phytotoxicity) OS (Rice (Oryza sativa)): 0 (herbicidal effect of not less than 0% and less than 10%, or phytotoxicity of 0% or more and less than 10%)

SMILES: CON=C(Cn1cc(C)c(-c2ccccc2)n1)C(=O)N1CCCCC1 [Compound 119]
- Herbicidal activity SJ (Scirpus juncoides; [14]): 3 (herbicidal effect of not less than 50% and less than 70%, or phytotoxicity of 50% or more and less than 70%)
- Herbicidal activity EC (Echinochloa crusgalli; [14]): 3 (herbicidal effect of not less than 50% and less than 70%, or phytotoxicity of 50% or more and less than 70%)
- Herbicidal activity MV (Monochoria vaginalis; [14]): 4 (herbicidal effect of not less than 70% and less than 90%, or phytotoxicity of 70% or more and less than 90%)
- Herbicidal activity AM (Ammannia multiflora; [14]): 4 (herbicidal effect of not less than 70% and less than 90%, or phytotoxicity of 70% or more and less than 90%)
- Herbicidal activity (phytotoxicity) OS (Rice (Oryza sativa)): 0 (herbicidal effect of not less than 0% and less than 10%, or phytotoxicity of 0% or more and less than 10%)

SMILES: CON=C(Cn1cc(C)c(-c2ccccc2)n1)C(=O)NNC(=O)OC [Compound 123]
- Herbicidal activity SJ (Scirpus juncoides; [14]): 3 (herbicidal effect of not less than 50% and less than 70%, or phytotoxicity of 50% or more and less than 70%)
- Herbicidal activity EC (Echinochloa crusgalli; [14]): 3 (herbicidal effect of not less than 50% and less than 70%, or phytotoxicity of 50% or more and less than 70%)
- Herbicidal activity MV (Monochoria vaginalis; [14]): 4 (herbicidal effect of not less than 70% and less than 90%, or phytotoxicity of 70% or more and less than 90%)
- Herbicidal activity AM (Ammannia multiflora; [14]): 4 (herbicidal effect of not less than 70% and less than 90%, or phytotoxicity of 70% or more and less than 90%)
- Herbicidal activity (phytotoxicity) OS (Rice (Oryza sativa)): 0 (herbicidal effect of not less than 0% and less than 10%, or phytotoxicity of 0% or more and less than 10%)
